Assays:
Assay type in all cases: in vivo
[1] = test system: barnyardgrass (Echinochloa crus-galli); assay: Test A pre/postemergence
How it was run: (§1)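 After planting in loam and sand, species received test chemical as preemergence soil spray; postemergence spray went on 2–10 cm plants at 1–2 leaves at the same time. Evaluation: visual injury, ~10 d, 0 no effect to 100 complete control.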

[2] = test system: crabgrass (Digitaria sanguinalis); assay: Test A pre/postemergence
How it was run: as §1

[3] = test system: giant foxtail (Setaria faberi); assay: Test A pre/postemergence
How it was run: as §1

[4] = test system: morningglory (Ipomoea spp.); assay: Test A pre/postemergence
How it was run: as §1

[5] = test system: redroot pigweed (Amaranthus retroflexus); assay: Test A pre/postemergence
How it was run: as §1

[6] = test system: velvetleaf (Abutilon theophrasti); assay: Test A pre/postemergence
How it was run: as §1

[7] = test system: Surinam grass (Brachiaria decumbens); assay: Test B pre/postemergence; details: for Surinam Grass plant response rating: Postemergence; for Plant response rating, Surinam Grass: Preemergence
How it was run: (§2)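 Formulation: non-phytotoxic solvent blend with surfactant. Timing: preemergence on seeds, postemergence at 1- to 4-leaf (2–18 cm). Assessment: visual, 0–100 against controls, after 13–15 days' greenhouse growth.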

[8] = test system: barnyardgrass (Echinochloa crus-galli); assay: Test B pre/postemergence; details: for Barnyardgrass plant response rating: Postemergence; for Plant response rating, Barnyardgrass: Preemergence
How it was run: as §2

[9] = test system: cocklebur (Xanthium strumarium); assay: Test B pre/postemergence; details: for Cocklebur plant response rating: Postemergence; for Plant response rating, Cocklebur: Preemergence
How it was run: as §2

corn (Zea mays) = assay: Test B pre/postemergence; details: for Corn plant response rating: Postemergence; for Plant response rating, Corn: Preemergence
How it was run: as §2

[10] = test system: crabgrass (Digitaria sanguinalis); assay: Test B pre/postemergence; details: for Crabgrass plant response rating: Postemergence; for Plant response rating, Crabgrass: Preemergence
How it was run: as §2

[11] = test system: giant foxtail (Setaria faberii); assay: Test B pre/postemergence; details: for Foxtail, Giant plant response rating: Postemergence; for Plant response rating, Foxtail, Giant: Preemergence
How it was run: as §2

[12] = test system: lambsquarters (Chenopodium album); assay: Test B pre/postemergence; details: for Lambsquarters plant response rating: Postemergence; for Plant response rating, Lambsquarters: Preemergence
How it was run: as §2

[13] = test system: morningglory (Ipomoea coccinea); assay: Test B pre/postemergence; details: for Morningglory plant response rating: Postemergence; for Plant response rating, Morningglory: Preemergence
How it was run: as §2

[14] = test system: pigweed (Amaranthus retroflexus); assay: Test B pre/postemergence; details: for Pigweed plant response rating: Postemergence; for Plant response rating, Pigweed: Preemergence
How it was run: as §2

[15] = test system: velvetleaf (Abutilon theophrasti); assay: Test B pre/postemergence; details: for Velvetleaf plant response rating: Postemergence; for Plant response rating, Velvetleaf: Preemergence
How it was run: as §2

[16] = test system: wheat (Triticum aestivum); assay: Test B pre/postemergence; details: for Wheat plant response rating: Postemergence; for Plant response rating, Wheat: Preemergence
How it was run: as §2

[17] = test system: blackgrass (Alopecurus myosuroides); assay: Test B postemergence; details: scale 0 to 100 (0 no effect, 100 complete control)
How it was run: as §2

wild oat (Avena fatua) = assay: Test B postemergence; details: scale 0 to 100 (0 no effect, 100 complete control)
How it was run: as §2

[18] = test system: barnyardgrass (Echinochloa crus-galli); assay: Test B flooded paddy test; details: Flood, scale 0 to 100
How it was run: (§3)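 Visual injury scoring (0 = no effect, 100 = complete control) versus controls made 13 to 15 days after treatment in the greenhouse. Test species were grown in flooded paddy to the 2-leaf stage: rice, barnyardgrass, umbrella sedge, duck salad.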

[19] = test system: duck salad (Heteranthera limosa); assay: Test B flooded paddy test; details: Flood, scale 0 to 100
How it was run: as §3

rice (Oryza sativa) = assay: Test B flooded paddy test; details: Flood, scale 0 to 100
How it was run: as §3

[20] = test system: umbrella sedge (Cyperus difformis); assay: Test B flooded paddy test; details: Flood, scale 0 to 100
How it was run: as §3

[21] = Postemergence, 125 g ai/ha, 0 to 100 scale (0 no effect, 100 complete control)
[22] = Postemergence, 500 g ai/ha, 0 to 100 scale (0 no effect, 100 complete control)
[23] = Preemergence, 125 g ai/ha, 0 to 100 scale where 0 is no effect and 100 is complete control, approximately ten days
[24] = Preemergence, 500 g ai/ha, 0 to 100 scale where 0 is no effect and 100 is complete control, approximately ten days
[25] = 62 g ai/ha, scale 0 to 100 (0 no effect, 100 complete control)
[26] = 125 g ai/ha, scale 0 to 100 (0 no effect, 100 complete control)
[27] = 62 g ai/ha, scale 0 to 100, 0 no effect, 100 complete control

COC(=O)c1nc(-c2ccc(F)cc2)nc(N)c1Br [Compound 92]
Plant response rating, Barnyardgrass [1, 21]: 0 | Plant response rating, Barnyardgrass [1, 22]: 0 | Plant response rating, Barnyardgrass [1, 23]: 0 | Plant response rating, Barnyardgrass [1, 24]: 0 | Plant response rating, Crabgrass [2, 21]: 0 | Plant response rating, Crabgrass [2, 22]: 5 | Plant response rating, Crabgrass [2, 23]: 0 | Plant response rating, Crabgrass [2, 24]: 0 | Plant response rating, Foxtail, Giant [3, 21]: 0 | Plant response rating, Foxtail, Giant [3, 22]: 0 | Plant response rating, Foxtail, Giant [3, 23]: 0 | Plant response rating, Foxtail, Giant [3, 24]: 0 | Plant response rating, Morningglory [4, 21]: 45 | Plant response rating, Morningglory [4, 22]: 75 | Plant response rating, Morningglory [4, 23]: 0 | Plant response rating, Morningglory [4, 24]: 0 | Plant response rating, Pigweed [5, 21]: 35 | Plant response rating, Pigweed [5, 22]: 70 | Plant response rating, Pigweed [5, 23]: 15 | Plant response rating, Pigweed [5, 24]: 45 | Plant response rating, Velvetleaf [6, 21]: 45 | Plant response rating, Velvetleaf [6, 22]: 70 | Plant response rating, Velvetleaf [6, 23]: 10 | Plant response rating, Velvetleaf [6, 24]: 45 | Surinam Grass plant response rating [7, 25]: 0 | Surinam Grass plant response rating [7, 26]: 10 | Plant response rating, Surinam Grass [7, 27]: 0 | Plant response rating, Surinam Grass [7, 26]: 0 | Barnyardgrass plant response rating [8, 25]: 10 | Barnyardgrass plant response rating [8, 26]: 10 | Plant response rating, Barnyardgrass [8, 27]: 10 | Plant response rating, Barnyardgrass [8, 26]: 30 | Cocklebur plant response rating [9, 25]: 60 | Cocklebur plant response rating [9, 26]: 80 | Plant response rating, Cocklebur [9, 27]: 40 | Plant response rating, Cocklebur [9, 26]: 50 | Corn plant response rating (corn (Zea mays); [25]): 0 | Corn plant response rating (corn (Zea mays); [26]): 0 | Plant response rating, Corn (corn (Zea mays); [27]): 0 | Plant response rating, Corn (corn (Zea mays); [26]): 0 | Crabgrass plant response rating [10, 25]: 0 | Crabgrass plant response rating [10, 26]: 20 | Plant response rating, Crabgrass [10, 27]: 0 | Plant response rating, Crabgrass [10, 26]: 10 | Foxtail, Giant plant response rating [11, 25]: 20 | Foxtail, Giant plant response rating [11, 26]: 30 | Plant response rating, Foxtail, Giant [11, 27]: 0 | Plant response rating, Foxtail, Giant [11, 26]: 10 | Lambsquarters plant response rating [12, 25]: 90 | Lambsquarters plant response rating [12, 26]: 90 | Plant response rating, Lambsquarters [12, 27]: 50 | Plant response rating, Lambsquarters [12, 26]: 80 | Morningglory plant response rating [13, 25]: 50 | Morningglory plant response rating [13, 26]: 60 | Plant response rating, Morningglory [13, 27]: 0 | Plant response rating, Morningglory [13, 26]: 0 | Pigweed plant response rating [14, 25]: 70 | Pigweed plant response rating [14, 26]: 80 | Plant response rating, Pigweed [14, 27]: 40 | Plant response rating, Pigweed [14, 26]: 80 | Velvetleaf plant response rating [15, 25]: 50 | Velvetleaf plant response rating [15, 26]: 60 | Plant response rating, Velvetleaf [15, 27]: 50 | Plant response rating, Velvetleaf [15, 26]: 70 | Wheat plant response rating [16, 25]: 0 | Wheat plant response rating [16, 26]: 0 | Plant response rating, Wheat [16, 27]: 0 | Plant response rating, Wheat [16, 26]: 30 | Blackgrass plant response rating ([17]; 62 g ai/ha): 20 | Blackgrass plant response rating ([17]; 125 g ai/ha): 20 | Oat, Wild plant response rating (wild oat (Avena fatua); 62 g ai/ha): 0 | Oat, Wild plant response rating (wild oat (Avena fatua); 125 g ai/ha): 0 | Plant response rating, Barnyardgrass ([18]; 125 g ai/ha): 0 | Plant response rating, Barnyardgrass ([18]; 500 g ai/ha): 0 | Plant response rating, Ducksalad ([19]; 125 g ai/ha): 80 | Plant response rating, Ducksalad ([19]; 500 g ai/ha): 90 | Plant response rating, Rice (rice (Oryza sativa); 125 g ai/ha): 0 | Plant response rating, Rice (rice (Oryza sativa); 500 g ai/ha): 0 | Plant response rating, Sedge, Umbrella ([20]; 125 g ai/ha): 80 | Plant response rating, Sedge, Umbrella ([20]; 500 g ai/ha): 90

From patent US8802597B2, “Herbicidal pyrimidines” (E I du Pont de Nemours and Company, priority 2003, dated 2014)
